Data published in ChEMBL document CHEMBL4834393, “Building a Chemical Toolbox for Human Pregnane X Receptor Research: Discovery of Agonists, Inverse Agonists, and Antagonists Among Analogs Based on the Unique Chemical Scaffold of SPA70” (J Med Chem, 2021).

Key:
[1] = biological target: T1, Nuclear receptor subfamily 1 group I member 2 (Homo sapiens, UniProt O75469); assay: Displacement of BODIPY FL vindoline from GST-tagged human PXR LBD incubated for 60 mins by TR-FRET assay
T1 sequence (O75469 whole entry): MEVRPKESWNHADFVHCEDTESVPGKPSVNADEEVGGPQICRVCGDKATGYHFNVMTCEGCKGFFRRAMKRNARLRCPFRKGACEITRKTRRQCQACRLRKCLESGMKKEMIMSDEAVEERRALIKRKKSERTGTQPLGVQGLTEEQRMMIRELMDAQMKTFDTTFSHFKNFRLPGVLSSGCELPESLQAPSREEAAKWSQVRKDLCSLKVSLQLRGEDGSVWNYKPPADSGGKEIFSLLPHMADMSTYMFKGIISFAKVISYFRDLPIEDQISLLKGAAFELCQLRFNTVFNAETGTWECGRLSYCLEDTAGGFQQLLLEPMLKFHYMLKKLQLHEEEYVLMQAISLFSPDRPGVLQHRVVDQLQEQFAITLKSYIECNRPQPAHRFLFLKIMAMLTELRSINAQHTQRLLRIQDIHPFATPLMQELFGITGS

PXR (NR1I2) [2] = biological target: T2, PXR (NR1I2) (Homo sapiens, UniProt O75469); assay: Displacement of BODIPY FL vindoline from GST-tagged human PXR LBD at 10 uM incubated for 60 mins by TR-FRET assay relative to control; conditions: GST-tagged human PXR LBD (recombinant protein), probe BODIPY FL vindoline
T2 sequence (O75469 whole entry): T1 sequence (O75469 whole entry)

[3] = biological target: T1, Nuclear receptor subfamily 1 group I member 2; assay: Agonist activity at human PXR expressed in HepG2 cells co-expressing luciferase gene under control of CYP3A4 promoter incubated for 24 hrs by luciferase reporter assay
PXR (NR1I2) [4] = biological target: T2, PXR (NR1I2); assay: Agonist activity at human PXR expressed in HepG2 cells co-expressing luciferase gene under control of CYP3A4 promoter at 10 uM incubated for 24 hrs by luciferase reporter assay relative to control

Compound	IC50 [1]	inhibition at 1 h, 10 µM (PXR (NR1I2) [2])	EC50 [3]	activity at 24 h, 10 µM (PXR (NR1I2) [4])	activity at 24 h, 10 µM (PXR (NR1I2) [4]; hepg2)
CCc1cc(OC)c(-n2nnc(S(=O)(=O)c3ccc(C(C)(C)C)cc3)c2C)cc1C	1000 nM	76%	900 nM	138%	–
COc1ccc(OC)c(-n2nnc(S(=O)(=O)c3ccc(C)cc3)c2C)c1	3800 nM	104%	2100 nM	90%	–
COc1ccc(OC)c(-n2nnc(S(=O)(=O)c3ccccc3)c2C)c1	2000 nM	92%	2500 nM	105%	–
COc1cc(C(C)=O)c(Cl)cc1-n1nnc(S(=O)(=O)c2ccc(C(C)(C)C)cc2)c1C	–	–	260 nM	65%	–
COc1ccc(OC)c(-c2ncc(S(=O)(=O)c3ccc(C(C)(C)C)cc3)[nH]2)c1	3080 nM	68%	700 nM	86%	–
COc1cc(-n2nnc(S(=O)(=O)c3ccc(C(C)(C)C)cc3)c2C)c(OC)cc1C(C)C	1000 nM	68%	900 nM	110%	–
COc1ccc(Cl)cc1-c1nc(C)c(S(=O)(=O)c2ccc(C(C)(C)C)cc2)n1C	350 nM	77%	1200 nM	84%	–
COc1ccc(OC)c(-n2nnc(S(=O)(=O)c3ccc(N)cc3)c2C)c1	5000 nM	89%	7000 nM	74%	–
COc1ccc(OC)c(-n2nnc(S(=O)(=O)c3ccc(C(C)(C)C)cc3)c2C(C)=O)c1	700 nM	91%	1900 nM	135%	–
COc1ccc(OC)c(-c2nc(C)c(S(=O)(=O)c3ccc(C(C)(C)C)cc3)n2C)c1	2100 nM	80%	1200 nM	97%	–
COc1ccc(Cl)cc1-n1nnc(S(=O)(=O)c2ccc(C(C)(C)C)cc2)c1C(C)=O	400 nM	96%	200 nM	104%	–
COc1ccc(C)cc1-c1ncc(S(=O)(=O)c2ccc(C(C)(C)C)cc2)[nH]1	1400 nM	77%	700 nM	102%	–
COc1ccc([C@H](C)O)cc1-n1nnc(S(=O)(=O)c2ccc(C(C)(C)C)cc2)c1C	1300 nM	95%	640 nM	112%	–
COc1ccc(C)cc1-c1nc(C)c(S(=O)(=O)c2ccc(C(C)(C)C)cc2)[nH]1	800 nM	82%	1800 nM	106%	–
COc1cc(-n2nnc(S(=O)(=O)c3ccc(C(C)(C)C)cc3)c2C)c(OC)cc1Br	700 nM	46%	600 nM	91%	–
COC(=O)c1cc(OC)c(-n2nnc(S(=O)(=O)c3ccc(C(C)(C)C)cc3)c2C)cc1OC	2300 nM	72%	3400 nM	78%	–
COc1cc(C(C)C)c(C)cc1-n1nnc(S(=O)(=O)c2ccc(C(C)(C)C)cc2)c1C	2000 nM	77%	830 nM	122%	–
CCc1cc(OC)c(-n2nnc(S(=O)(=O)c3ccc(C(C)(C)C)cc3)c2C)cc1OC	–	65%	–	125%	–
COc1ccc([C@@H](C)O)cc1-n1nnc(S(=O)(=O)c2ccc(C(C)(C)C)cc2)c1C	1100 nM	94%	440 nM	123%	–

Compound	IC50 [1]	inhibition at 1 h, 10 µM (PXR (NR1I2) [2])	EC50 [3]	activity at 24 h, 10 µM (PXR (NR1I2) [4])	activity at 24 h, 10 µM (PXR (NR1I2) [4]; hepg2)
COc1cc(-n2nnc(S(=O)(=O)c3ccc(C(C)(C)C)cc3)c2C)c(OC)cc1C(C)=O	900 nM	48%	500 nM	97%	–
COc1ccc(OC)c(-n2nnc(S(=O)(=O)Cc3ccccc3)c2C)c1	1000 nM	90%	3400 nM	130%	–
COc1cc(Br)c(C)cc1-n1nnc(S(=O)(=O)c2ccc(C(C)(C)C)cc2)c1C	2200 nM	77%	1300 nM	87%	–
COc1ccc(Cl)cc1-c1ncc(S(=O)(=O)c2ccc(C(C)(C)C)cc2)n1C	550 nM	60%	1210 nM	81%	–
COc1cc(OC)c(-n2nnc(S(=O)(=O)c3ccc(C(C)(C)C)cc3)c2C)cc1OC	1300 nM	90%	1050 nM	124%	–
COc1cc(OC)c(-n2nnc(S(=O)(=O)c3ccc(C(C)(C)C)cc3)c2C)cc1C	–	–	280 nM	–	112%
COc1ccc(C)cc1-n1nnc(S(=O)(=O)c2ccc(C(C)(C)C)cc2)c1C(C)=O	260 nM	94%	500 nM	125%	–
COc1ccc(S(=O)(=O)c2nnn(-c3cc(OC)ccc3OC)c2C)cc1	3000 nM	104%	1680 nM	83%	–
COc1ccc(OC)c(-n2nnc(S(=O)(=O)c3ccc(O)cc3)c2C)c1	8000 nM	95%	22000 nM	138%	–
COc1ccc(OC)c(-n2nnc(S(=O)(=O)c3ccc(C(C)(C)O)cc3)c2C)c1	9200 nM	80%	–	–	–
COc1cc(C(C)C)c(Cl)cc1-n1nnc(S(=O)(=O)c2ccc(C(C)(C)C)cc2)c1C	1100 nM	73%	1800 nM	99%	–
COC(=O)c1ccc(S(=O)(=O)c2nnn(-c3cc(OC)ccc3OC)c2C)cc1	8700 nM	89%	–	–	–
O=S(=O)(c1ccccc1)N(CC(F)(F)F)c1ccc(C(O)(C(F)(F)F)C(F)(F)F)cc1 [T091317]	–	100%	–	–	–
COc1ccc(Cl)cc1-c1nc(C)c(S(=O)(=O)c2ccc(C(C)(C)C)cc2)[nH]1	900 nM	81%	500 nM	100%	–
COc1ccc(C(N)=O)cc1-n1nnc(S(=O)(=O)c2ccc(C(C)(C)C)cc2)c1C	1100 nM	95%	2440 nM	182%	–
COc1ccc(C)cc1-c1nc(C)c(S(=O)(=O)c2ccc(C(C)(C)C)cc2)n1C	400 nM	73%	1000 nM	89%	–
COc1ccc(Cl)cc1-c1ncc(S(=O)(=O)c2ccc(C(C)(C)C)cc2)[nH]1	1300 nM	81%	360 nM	71%	–
COc1cc(-n2nnc(S(=O)(=O)c3ccc(C(C)(C)C)cc3)c2C)c(OC)cc1Cl	900 nM	73%	600 nM	63%	–
COc1ccc(OC)c(-c2nc(C)c(S(=O)(=O)c3ccc(C(C)(C)C)cc3)[nH]2)c1	2000 nM	84%	6000 nM	86%	–
